According to patent publication US5281604A, “Angiotensin II receptor blocking 2,3,6-substituted quinazolinones” (American Cyanamid Company, priority 1993, dated 1994):

Target: T1, Angiotensin II Receptor (Bos taurus, UniProt P25104)
T1 construct: beef adrenal glands are processed as follows: fresh adrenal glands received on crushed ice are cleaned of fatty tissues; tissue Maxwell-Cohen (local slaughter house); host or cells: beef adrenal cortex, microsomal membranes (100,000×g pellet)
T1 sequence (P25104 1-359): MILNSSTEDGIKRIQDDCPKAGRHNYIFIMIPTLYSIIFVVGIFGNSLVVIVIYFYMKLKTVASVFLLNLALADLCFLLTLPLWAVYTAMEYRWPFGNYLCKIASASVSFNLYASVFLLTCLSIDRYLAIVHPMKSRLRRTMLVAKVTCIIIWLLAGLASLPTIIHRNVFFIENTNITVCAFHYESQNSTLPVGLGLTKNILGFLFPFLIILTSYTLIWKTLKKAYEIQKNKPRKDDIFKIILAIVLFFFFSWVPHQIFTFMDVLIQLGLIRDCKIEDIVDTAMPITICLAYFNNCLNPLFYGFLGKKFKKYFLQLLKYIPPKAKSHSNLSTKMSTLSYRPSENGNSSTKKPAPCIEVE
Assay: Receptor Binding Assay: displacement of [125I](Sar1,Ile8)AngII from beef adrenal cortex microsomal membranes
Details: 60 min room temperature
Source text: Beef adrenals are obtained from a local slaughter house (Maxwell-Cohen).
[^125 I](Sar^1,Ile^8)AngII, S.A. 2200 Ci/mmole, is purchased from Dupont (NEN®, Boston, Mass.). All unlabeled AngII analogs, Dimethylsulfoxide (DMSO), nucleotides, bovine serum albumin (BSA) are purchased from Sigma Chemical Co., St. Louis, Mo. U.S.A.
Approximately sixteen (16) to twenty (20) beef adrenal glands are processed as follows: fresh adrenal glands received on crushed ice are cleaned of fatty tissues and the tough membranes encapsulating the glands are removed and discarded. The brownish tissue forming the adrenal cortex is scraped off and finely minced with scissors before homogenization. Care is taken to avoid contamination with medullary tissue during dissection. The scraped cortices are suspended in twenty volumes of an ice-cold buffer medium consisting of 10 mM Tris.HCl (pH 7.4 at 22° C.) and containing 1.0 mM EDTA and 0.2M sucrose. Unless otherwise indicated, all subsequent operations are done at 4° C. […] The homogenate is centrifuged first at low speed (3,000×g) for 10 min. The resulting pellet is discarded and the supernatant fluid recentrifuged at 10,000×g for 15 minutes to give a P2 pellet. This P2 pellet is discarded and the liquid phase is carefully decanted off in clean centrifuge tubes and recentrifuged at high speed (100,000×g) for 60 min. The translucent final pellet is harvested and combined in a small volume (20-50.0 ml) of 50.0 mM Tris.HCl buffer, pH 7.2. A 100 ul aliquot is withdrawn and the protein content of the preparation is determined by the Lowry's method (Lowry, O. H., Rosebrough, N. F., Farr, A. L. and Randall, R. J., Protein measurement with Folin phenol reagent. J. Biol. Chem., […], 265-275, 1951). The pelleted membrane is reconstituted in 50.0 mM Tris.HCl buffer containing 0.1 mM of phenylmethylsulfonyl fluoride (PMSF) to give approximately a protein concentration of 2.5 mg per ml of tissue suspension. The membrane preparation is finally aliquoted in 1.0 ml volumes and stored at -70° C. until use in the binding assays.
The binding of [^125 I](Sar^1.Ile^8)AngII to microsomal membranes is initiated by the addition of reconstituted membranes (1:10 vols.) in freshly made 50.0 mM Tris.HCl buffer, pH 7.4 containing 0.25% heat inactivated bovine serum albumin (BSA): 80 ul membrane protein (10 to 20 ug/assay) to wells already containing 100 ul of incubation buffer (as described above) and 20 ul [^125 I](Sar^1,Ile^8)AmgII (Specific Activity, 2200 Ci/mmole) Non-specific binding is measured in the presence of 1.0 uM unlabeled (Sar^1,Ile^8)AngII, added in 20 ul volume. Specific binding for [^125 I](Sar^1,Ile^8) AngII is greater than 90%. In competition studies, experimental compounds are diluted in dimethylsulfoxide (DMSO) and added in 20 ul to wells before the introduction of tissue membranes. This concentration of DMSO is found to have no negative effects on the binding of [^ 125I] (Sar^1,Ile^8) AngII to the membranes. Assays are performed in triplicate. The wells are left undisturbed for 60 min. at room temperature. […] Presoaking the filter sheet in 0.1% polyethyleneimine in normal saline (PEI/Saline) greatly reduces the radioactivity retained by the filter blanks. […] The filters are removed from the filter grid and counted in a Parkard® Cobra Gamma Counder for 1 min. […] The binding data are analyzed by the non-linear interactive "LUNDON-1" program (LUNDON SOFTWARE Inc., Cleveland, Ohio U.S.A.).

| IC50 [µM] | SMILES |
| --- | --- |
| 0.1 | CCCCc1nc2ccc(C3CC4C(c5ccc(C)cc5)=NOC4O3)cc2c(=O)n1Cc1ccc(-c2ccccc2-c2nnn[nH]2)cc1 (stereo not shown) [Example 12] |
| 0.076 | CCCCc1nc2ccc(C3CC4C(O3)ON(c3ccccc3)C4c3ccccc3)cc2c(=O)n1Cc1ccc(-c2ccccc2-c2nnn[nH]2)cc1 (stereo not drawn) [Example 10, (3α, 3aβ, 5β, 6aβ)-2-Butyl-6-(hexahydro-2,3-diphenylfuro[3,2-d]isoxazol-5-yl)-3-[[2'-(1H-tetrazol-5-yl)[1,1'-biphenyl]-4-yl]methyl]-4(3H)-quinazolinone] |
| 0.05 | CCCCc1nc2ccc([C@H]3OC[C@H]4[C@@H]3ON3[C@@H]4CCC3(C)C)cc2c(=O)n1Cc1ccc(-c2ccccc2-c2nnn[nH]2)cc1 (relative stereo) [Example 7, (1α, 3aα, 8aβ, 8bα)-2-Butyl-6-(octahydro-6,6-dimethylfuro[3,4-d]pyrrolo[1,2-b]isoxazol-1-yl)-3-[[2'-(1H-tetrazol-5-yl)[1,1'-biphenyl]-4-yl]methyl]-4 (3H)-quinazolinone] |
| 0.0319 | CCCCc1nc2ccc(C3CC4C(O3)ON3C4CCC3(C)C)cc2c(=O)n1Cc1ccc(-c2ccccc2-c2nnn[nH]2)cc1 (stereo not shown) [Example 14] |
